Data taken from Sander's compilation of Henry's law constants (doi:10.1016/s0021-9673(98)00877-2).

Assay: Henry solubility constant Hcp at 298.15 K (mol/(m3 Pa))
Settings: reference: Dewulf et al. (1999)

Point of comparison: `O=[N+]([O-])c1ccccc1` [nitrobenzene], “Henry solubility constant Hcp” value 0.023. Against it:
- ClCC(Cl)Cl [1,1,2-trichloroethane] — lower, 0.011
- C=C(Cl)Cl [1,1-dichloroethene] — lower, 0.00037
- Clc1cccc(Cl)c1Cl [1,2,3-trichlorobenzene] — lower, 0.0036
- CC(Cl)CCl (centres undefined) [1,2-dichloropropane] — lower, 0.0035
- Clc1cc(Cl)cc(Cl)c1 [1,3,5-trichlorobenzene] — lower, 0.0018
- Clc1ccccc1 [chlorobenzene] — lower, 0.0025
- C1CCCCC1 [cyclohexane] — lower, 5.2e-05
- Fc1ccccc1 [fluorobenzene] — lower, 0.0014
- ClC(Cl)=C(Cl)C(Cl)=C(Cl)Cl [hexachlorobutadiene] — lower, 0.00062
- COc1ccccc1 [methoxybenzene] — higher, 0.026
- Cc1ccccc1 [methylbenzene] — lower, 0.0015
- c1ccc2ccccc2c1 [naphthalene] — lower, 0.013
- ClC=C(Cl)Cl [trichloroethene] — lower, 0.00095
